In patent US20260124201A1, “CYCLOPENTANE COMPOUND” (Kissei Pharmaceutical Co., Ltd., priority 2022, published 2026):

These compounds were tested against T1, human OX2R (Homo sapiens, UniProt O43614) (assay: Measurement of OX2R agonist activity (intracellular calcium concentration change, Fluo4-AM, FDSS 7000)). Conditions: compound concentration 10 μM; human OX2R-expressing CHO-K1 cells; 1 μM human orexin A peptide = 100%, medium alone = 0%.
T1 construct: expressed in transfected cells
T1 sequence (O43614 1-444): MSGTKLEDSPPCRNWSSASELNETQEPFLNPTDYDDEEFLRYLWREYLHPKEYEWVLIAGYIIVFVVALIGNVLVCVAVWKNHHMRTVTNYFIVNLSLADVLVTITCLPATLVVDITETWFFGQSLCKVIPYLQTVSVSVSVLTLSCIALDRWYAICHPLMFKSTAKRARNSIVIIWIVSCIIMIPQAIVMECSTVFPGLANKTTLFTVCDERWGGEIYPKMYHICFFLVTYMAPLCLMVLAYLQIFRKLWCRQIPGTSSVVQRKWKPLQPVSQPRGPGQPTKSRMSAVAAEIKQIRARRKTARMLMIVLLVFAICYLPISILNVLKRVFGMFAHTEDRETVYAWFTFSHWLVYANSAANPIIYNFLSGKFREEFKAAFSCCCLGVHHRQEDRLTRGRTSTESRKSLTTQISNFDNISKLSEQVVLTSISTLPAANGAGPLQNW
Type: cell-based
From the text: The following abbreviations in the description, the figures and the tables have the following meanings, respectively. • AZADOL (registered trademark): 2-Hydroxy-2-azaadamantane • Boc2O: di-tert-butyl dicarbonate • DIPEA: N,N-diisopropylethylamine • DCM: dichloromethane • DMAP: 4-dimethylaminopyridine • DMF: N,N-dimethylformamide • DMSO: dimethylsulfoxide • Deoxo-Fluor: bis(2-methoxyethyl)-aminosulfur trifluoride • HATU: O-(7-azabenzotriazol-1-yl)-N,N,N′,N′-tetramethyluronium hexafluorophosphate • LDA: lithium diisopropylamide • MeCN: acetonitrile • Me4tBuXPhos: 2-di-tert-butylphosphino-3,4,5,6-tetramethyl-2′,4′,6′-triisopropyl-1,1′-biphenyl • MTBE: methyl tert-butyl ether • NMP: N-methylpyrrolidone • PdCl2(PPh3)2: dichlorobis(triphenylphosphine)palladium(II) • Pd(dba)2: bis(dibenzylideneacetone)palladium(0) • Pd2(dba)3: tris(dibenzylideneacetone)dipalladium(0) • Pd(dppf)Cl2: [1,1′-bis(diphenylphosphino)ferrocene]dichloropalladium(II) • Pd(PPh3)4: tetrakis(triphenylphosphine)palladium(0) • TEA: triethylamine • TFA: trifluoroacetic acid • THF: tetrahydrofuran • Xphos: 2-dicyclohexylphosphino-2′,4′,6′-triisopropylbiphenyl • Xphos Pd G3: (2-dicyclohexylphosphino-2′,4′,6′-triisopropyl-1,1′-biphenyl)[2-(2′-amino-1,1′-biphenyl)]palladium(II) methanesulfonic acid salt • 10% Pd/C: Palladium 10% on Carbon (wetted with ca. 55% water) • APS: aminopropylated silica gel • ODS: octadecyl-silylated silica gel • Method A: column chromatography with an aminopropylated silica gel column followed by a silica gel column • Chiral preparative column chromatography: chiral preparative column chromatography using YMC CHIRALART Cellulose-SB • Ref. No.: Reference Example Number • Str.: structural formula • Ex. No.: Example Number • Phys. data: physical data • ^1H-NMR: hydrogen nuclear magnetic resonance spectrum • CDCl3: chloroform-d1 • MS: mass spectrometry (The measured values in the tables were measured by electrospray ionization or multiionization using electrospray ionization-atmospheric pressure chemical ionization.) • Act.: activation rate of test substance at a compound concentration of 10 μM calculated by setting the fluorescence intensity obtained when human orexin A peptide was added at a concentration of 1 μM as 100% and the fluorescence intensity obtained when the medium alone was added as 0% • CHO: Chinese hamster ovary • HEPES: 2-[4-(2-hydroxyethyl)-1-piperazinyl]ethanesulfonic acid
A human OX2R sequence (Accession No. NM_001526.4) was inserted into the multiple cloning site of pcDNA3.4 (Life Technologies Japan Ltd.) to clone a plasmid vector for human OX2R expression. The plasmid was introduced into CHO-K1 cells using Lipofectamine 2000 (Life Technologies Japan Ltd.). Two days later, the transgenic CHO-K1 cells were passaged into 175T flasks and cultured selectively for 6 days. As a selection medium, Ham's F-12 Nutrient Mix (Life Technologies Japan Ltd.), containing Geneticin (registered trademark) (Life Technologies Japan Ltd.) at a final concentration of 1 mg/mL and inactivated fetal bovine serum (Biowest) at a final concentration of 10%, was used. After the selective culture, the cells were reseeded into 96-well plates, and a human OX2R-expressing cell line was obtained by limiting dilution.
The agonist effects of test substances on human OX2R were evaluated using the intracellular calcium concentration-change upon stimulation as an indicator. A day before measurement of the intracellular calcium concentrations, human OX2R-expressing cells suspended in a medium were seeded into 384-well plates at 5×10^3 cells/50 μL/well and cultured overnight in an incubator set at 37° C. and 5% CO2. After incubation, the medium was removed and replaced with 20 μL of a loading buffer. […]

Question: Which “Act. (%): activation rate of test substance” value (from here on “Act. (%): activation rate”) does the source give for `CON(C)C(=O)[C@@]1(Cc2cccc(-n3nccn3)c2)CC[C@H](NS(C)(=O)=O)C1` (relative stereo) [Example 27, (1R*,3S*)-1-(3-(2H-1,2,3-Triazol-2-yl)benzyl)-N-methoxy-N-methyl-3-(methylsulfonamido)cyclopentane-1-carboxamide] here?
Answer: The value was 87%.

Question: `CCN(C)C(=O)[C@@]1(Cc2cccc(-c3ncccn3)c2)CC[C@H](NS(C)(=O)=O)C1` (relative stereo) [Example 28, (1R*,3S*)—N-Ethyl-N-methyl-3-(methylsulfonamido)-1-(3-(pyrimidin-2-yl)benzyl)cyclopentane-1-carboxamide] was tested. Which “Act. (%): activation rate” value did it give?
Answer: Its value is 92%.

Question: For `CONC(=O)[C@@]1(Cc2cccc(-c3ncccn3)c2)CC[C@H](NS(C)(=O)=O)C1` (relative stereo) [Example 29, (1R*,3S*)—N-Methoxy-3-(methylsulfonamido)-1-(3-(pyrimidin-2-yl)benzyl)cyclopentane-1-carboxamide], which “Act. (%): activation rate” value is on record?
Answer: Its value is 47%.

Question: With `CN(O)C(=O)[C@@]1(Cc2cccc(-c3ncccn3)c2)CC[C@H](NS(C)(=O)=O)C1` (relative stereo) [Example 30, (1R*,3S*)—N-Hydroxy-N-methyl-3-(methylsulfonamido)-1-(3-(pyrimidin-2-yl)benzyl)cyclopentane-1-carboxamide] as the compound, how does the “Act. (%): activation rate” value read?
Answer: Its value is 48%.

Question: How did the “Act. (%): activation rate” value turn out when `CON(C)C(=O)[C@@]1(Cc2cccc(-c3ncccn3)c2)CC[C@H](NS(=O)(=O)C2(C)CC2)C1` (relative stereo) [Example 31, (1R*,3S*)—N-Methoxy-N-methyl-3-((1-methylcyclopropane)-1-sulfonamido)-1-(3-(pyrimidin-2-yl)benzyl)cyclopentane-1-carboxamide] was run?
Answer: Its value is 107%.

Question: For `CON(C)C(=O)[C@@]1(Cc2cccc(-c3ncccn3)c2)C[C@@H](F)[C@H](NS(C)(=O)=O)C1` (relative stereo) [Example 32, (1R*,3R*,4R*)-3-Fluoro-N-methoxy-N-methyl-4-(methylsulfonamido)-1-(3-(pyrimidin-2-yl)benzyl)cyclopentane-1-carboxamide], which “Act. (%): activation rate” value is on record?
Answer: The value was 89%.

Question: With `CON(C)C(=O)[C@@]1(Cc2cccc(-c3ncccn3)c2)C[C@H](F)[C@H](NS(C)(=O)=O)C1` (relative stereo) [Example 33] as the compound, how does the “Act. (%): activation rate” value read?
Answer: The value was 83%.

Question: How did the “Act. (%): activation rate” value turn out when `CON(C)C(=O)[C@@]1(Cc2ccc(F)c(-c3ncc(F)cn3)c2)C[C@H](F)[C@H](NS(=O)(=O)N(C)C)C1` (relative stereo) [Example 34, (1R*,3R*,4S*)-3-((N,N-Dimethylsulfamoyl)amino)-4-fluoro-1-(4-fluoro-3-(5-fluoropyrimidin-2-yl)benzyl)-N-methoxy-N-methylcyclopentane-1-carboxamide] was run?
Answer: The value was 90%.

Question: Which “Act. (%): activation rate” value does the source give for `CON(C)C(=O)[C@@]1(Cc2cccc(-c3ncc(F)cn3)c2)C[C@H](F)[C@H](NS(=O)(=O)N(C)C)C1` (relative stereo) [Example 35, (1R*,3R*,4S*)-3-((N,N-Dimethylsulfamoyl)amino)-4-fluoro-1-(3-(5-fluoropyrimidin-2-yl)benzyl)-N-methoxy-N-methylcyclopentane-1-carboxamide] here?
Answer: Its value is 92%.

Question: For `CCS(=O)(=O)N[C@@H]1C[C@@](Cc2ccc(F)c(-c3ncc(F)cn3)c2)(C(=O)N(C)OC)C[C@@H]1F` (relative stereo) [Example 36, (1R*,3R*,4S*)-3-(Ethylsulfonamido)-4-fluoro-1-(4-fluoro-3-(5-fluoropyrimidin-2-yl)benzyl)-N-methoxy-N-methylcyclopentane-1-carboxamide], which “Act. (%): activation rate” value is on record?
Answer: Its value is 84%.

Question: For `CON(C)C(=O)[C@@]1(Cc2cc(-c3ncc(F)cn3)ccc2F)C[C@H](F)[C@H](NS(C)(=O)=O)C1` (relative stereo) [Example 37, (1R*,3S*,4R*)-3-Fluoro-1-(2-fluoro-5-(5-fluoropyrimidin-2-yl)benzyl)-N-methoxy-N-methyl-4-(methylsulfonamido)cyclopentane-1-carboxamide], which “Act. (%): activation rate” value is on record?
Answer: The value was 90%.

Question: For `CON(C)C(=O)[C@@]1(Cc2cc(-c3ncccn3)ccc2F)C[C@H](F)[C@H](NS(=O)(=O)C(F)(F)F)C1` (relative stereo) [Example 38, (1R*,3S*,4R*)-3-Fluoro-1-(2-fluoro-5-(pyrimidin-2-yl)benzyl)-N-methoxy-N-methyl-4-((trifluoromethyl)sulfonamido)cyclopentane-1-carboxamide], which “Act. (%): activation rate” value is on record?
Answer: The value was 93%.

Question: With `CON(C)C(=O)[C@@]1(Cc2ccc(O)c(-c3ncc(F)cn3)c2)C[C@H](F)[C@H](NS(C)(=O)=O)C1` (relative stereo) [Example 39, (1R*,3S*,4R*)-3-Fluoro-1-(3-(5-fluoropyrimidin-2-yl)-4-hydroxybenzyl)-N-methoxy-N-methyl-4-(methylsulfonamido)cyclopentane-1-carboxamide] as the compound, how does the “Act. (%): activation rate” value read?
Answer: Its value is 91%.

Question: `CON(C)C(=O)[C@]1(Cc2cccc(-c3ncccn3)c2)C[C@@H](NS(C)(=O)=O)C(F)(F)C1` (relative stereo) [Example 40, (1R*,4R*)-3,3-Difluoro-N-methoxy-N-methyl-4-(methylsulfonamido)-1-(3-(pyrimidin-2-yl)benzyl)cyclopentane-1-carboxamide] was tested. Which “Act. (%): activation rate” value did it give?
Answer: Its value is 88%.

Question: With `CON(C)C(=O)[C@]1(Cc2cccc(-c3ncc(F)cn3)c2)C[C@@H](NS(=O)(=O)N(C)C)C(F)(F)C1` (relative stereo) [Example 41] as the compound, how does the “Act. (%): activation rate” value read?
Answer: The value was 93%.

Question: `CON(C)C(=O)[C@]1(Cc2ccc(F)c(-c3ncc(F)cn3)c2)C[C@@H](NS(C)(=O)=O)C(F)(F)C1` (relative stereo) [Example 42] was tested. Which “Act. (%): activation rate” value did it give?
Answer: Its value is 87%.

Question: With `CON(C)C(=O)[C@]1(Cc2cc(-c3ncc(F)cn3)ccc2F)C[C@@H](NS(C)(=O)=O)C(F)(F)C1` (relative stereo) [Example 43] as the compound, how does the “Act. (%): activation rate” value read?
Answer: The value was 93%.

Question: For `CON(C)C(=O)[C@@]1(Cc2cccc(-c3ncc(F)cn3)c2)C[C@@H](C)[C@H](NS(C)(=O)=O)C1` (relative stereo) [Example 44, (1R*,3R*,4R*)-1-(3-(5-Fluoropyrimidin-2-yl)benzyl)-N-methoxy-N,3-dimethyl-4-(methylsulfonamido)cyclopentane-1-carboxamide], which “Act. (%): activation rate” value is on record?
Answer: The value was 96%.

Question: `CON(C)C(=O)[C@@]1(Cc2cccc(-c3ncc(F)cn3)c2)C[C@H](C)[C@H](NS(C)(=O)=O)C1` (relative stereo) [Example 45, (1R*,3S*,4R*)-1-(3-(5-Fluoropyrimidin-2-yl)benzyl)-N-methoxy-N,3-dimethyl-4-(methylsulfonamido)cyclopentane-1-carboxamide] was tested. Which “Act. (%): activation rate” value did it give?
Answer: The value was 93%.

Question: For `COCCNC(=O)[C@@]1(Cc2cccc(-c3ccccc3)c2)CC[C@H](NS(C)(=O)=O)C1` (relative stereo) [Example 69], which “Act. (%): activation rate” value is on record?
Answer: The value was 44%.
